Reference: US12263349B2, “Method of treatment of biological surfaces” (Koite Health Oy, priority 2018, dated 2025)
Entries after “also recorded” stand apart in the source; their conditions may differ.

Columns and labels:
[1] = tested on: monospecies biofilm of Streptococcus sobrinus; conditions: biofilm versus planktonic form; cited from earlier work
[2] = tested on: Streptococcus mutans biofilm; assay: Potentiation of chlorhexidine with dual wavelength PDT; type: cell-based; conditions: high and low energy photons with photosensitizer; FIG. 3
From the text: Treatment can be combined with topic use of antibiotics and disinfectants for synergist antipathogen effect. For example, the use phototherapy with chlorhexidine to target biofilms is new to oral disinfection. The results of dual wavelength photodynamic therapy with chlorhexidine against Streptococcus mutans biofilm shown in appendix III are completely new. […] The effectivity is based on photon and anionic photosensitizer ability to penetrate deeper into biofilm and provide efficient bacteria killing inside the biofilm as well as on the surface. The chlorhexidine effect is mostly present only on the surface of the biofilm. High energy photons reduce the biofilm EPS matrix formation that further increases the chlorhexidine effectivity in subsequent treatments. In a second series of tests, potentiation of chlorhexidine with dual wavelength PDT was evaluated.

[3] = tested on: Streptococcus mutans biofilm; assay: Streptococcus mutans monospecies biofilm model, PDT with indocyanine green, viability by serial dilution CFU; type: cell-based, Streptococcus mutans (ATCC 25175)
Experimental: In a third series of test, the adaptability of Streptococcus mutans biofilms to multi and single wavelength PDT treatments, respectively, was compared.
Two separate monospecies biofilm model experiments were performed to study the effect of reoccurring photodynamic therapy on biofilm formation. The Streptococcus mutans biofilm experiments were divided in different classes based on biofilm age and the therapy given.
The one-time PDT treatment was performed for 1 day, 2 days and 4 days old biofilms. […] The viability of the bacteria was assessed by serial dilution CFU method which was performed after the last photodynamic therapy treatment.
Streptococcus mutans (ATCC 25175) bacteria was grown over 18 h in growth chamber (36° C., 5% CO2) in BHI-broth (Bio-Rad 3564014). The resulting bacteria suspension was diluted with 0.9% NaCl suspension to optical density of 0.46.
Biofilm was grown on bottom of well plate by adding 100 μl diluted Streptococcus mutans suspension in each well with 100 μl of BHI-broth growth medium. The bacteria plate was incubated in growth chamber (36 Celsius, 5% CO2) and BHI-broth medium changed daily.
Before the light exposure, the growth medium was replaced with indocyanine green suspension which was let to incubate in dark in room temperature for 10 minutes. After the incubation the biofilm was washed twice with 0.9% NaCl solution. The treatment time was calculated from desired light amount and known intensity.
The light exposure was performed by placing the well plate under known LED light source. The given light intensity was analyzed with Thorlabs PM100D and S121C sensor head. Treatment time was changed to result in desired light amount. […]
The first experiment of continuous treatment of Streptococcus biofilm with PDT was completed by using 250 μg/ml ICG with 810 nm light. Different age biofilms of 1 day, 2 days and 4 days were grown, and the treatment was given once to each biofilm to evaluated the effect of single time treatment to differently aged biofilms. […]

Streptococcus mutans = assay: Bacteria plate study: antibacterial effect of 405 nm light compared to PDT; type: cell-based; conditions: FIG. 6

| Compound | times greater concentration needed to kill biofilm than planktonic counterpart [1] | antimicrobial effect of chlorhexidine combined with multi wavelength PDT versus reference and one wavelength [2] | effect of PDT treatment on biofilm (CFU), every day treated ([3]; 250 μg/ml ICG with 810 nm light (single wavelength), 4 days old biofilm treated every day) | effect of PDT treatment on biofilm (CFU), treatment given once ([3]; 250 μg/ml ICG with 810 nm light, single treatment of 1 day, 2 days and 4 days old biofilms) | bacteria killing with double wavelength PDT, every day therapy versus day 4 only ([3]; ICG, 810 nm combined with 405 nm light, 4 days old biofilm) | light dose resulting in complete inhibition of Streptococcus mutans growth (Streptococcus mutans) |
| --- | --- | --- | --- | --- | --- | --- |
| amine fluoride | 100 | – | – | – | – | – |
| [H]/N=C(\N/C(=N/[H])NCCCCCCNC(=N)NC(=N)Nc1ccc(Cl)cc1)Nc1ccc(Cl)cc1 [chlorhexidine] | 100 | increased substantially the antibacterial effect; also recorded: much stronger effect | – | – | – | – |
| CC1(C)C(/C=C/C=C/C=C/C=C2\N(CCCCS(=O)(=O)O)c3ccc4ccccc4c3C2(C)C)=[N+](CCCCS(=O)(=O)[O-])c2ccc3ccccc3c21 [ICG, Indocyanine green] | – | – | poor treatment effect; also recorded: failed to achieve strong bacteria killing | strong effect of PDT treatment | No significant difference of bacteria killing; also recorded: no bacteria biofilm adaptation to the treatment was observed | 4 J/cm^2 |
